We go through 24 molecules from patent US20250101041A1, “POSITIVE ALLOSTERIC MODULATORS OF THE MUSCARINIC ACETYLCHOLINE RECEPTOR M4” (Vanderbilt University, priority 2022, published 2025).

The experiment addresses T1, human mAChR M4 (Homo sapiens, UniProt P08173).
T1 construct: expressed in transfected cells; host or cells: CHO-K1 (American Type Culture Collection), stably expressing hM4 and Gqi5
T1 sequence (P08173 1-479): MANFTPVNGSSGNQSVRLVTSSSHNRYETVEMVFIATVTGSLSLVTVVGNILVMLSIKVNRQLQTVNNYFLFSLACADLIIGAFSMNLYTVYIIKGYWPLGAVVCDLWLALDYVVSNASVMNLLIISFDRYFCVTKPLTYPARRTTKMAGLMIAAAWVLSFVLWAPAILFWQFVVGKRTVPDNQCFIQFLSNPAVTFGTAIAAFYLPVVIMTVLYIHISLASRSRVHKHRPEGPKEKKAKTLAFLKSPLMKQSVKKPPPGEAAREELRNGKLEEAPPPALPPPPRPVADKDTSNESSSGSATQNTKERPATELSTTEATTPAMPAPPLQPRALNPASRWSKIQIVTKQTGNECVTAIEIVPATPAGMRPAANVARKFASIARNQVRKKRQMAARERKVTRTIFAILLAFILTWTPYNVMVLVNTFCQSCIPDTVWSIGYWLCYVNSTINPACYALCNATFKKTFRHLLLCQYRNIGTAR
Description: mAChR M4 cell-based functional assay: calcium mobilization (Fluo-4, FDSS), potentiation of EC20 acetylcholine response in hM4-Gqi5 CHO-K1 cells. The conditions noted are these: human M4; for Emax at 30 µM: CHO-K1, % ACh maximum at 30 μM; for pEC50: potentiation of EC20 acetylcholine response, calcium mobilization. Put shortly: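 Readout is the fluorescence-ratio rise at 1 Hz on FDSS, with PAM activity taken as concentration-dependent enhancement of the EC20 acetylcholine response, fitted four-parameter for EC50/Emax. hM4-Gqi5 CHO-K1 cells carried Fluo-4 AM dye; test compounds (11 points, 1:3) preceded EC20 acetylcholine additions at 144 s and 230 s.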

pEC50: −log10 of the molar value.

A word on the Emax: it is the size of the effect at its maximum, as opposed to the concentration needed. A word on the pEC50: it is −log10 of the EC50, conventionally taken in molar units.

Take `Cc1cc(Cl)c(-c2cnc3c(c2)CN(c2nn4c(=O)cc(C(F)F)nc4c(C)c2C)CC3)cn1` [Compound 1-187, 7-(3-(4-chloro-6-methylpyridin-3-yl)-7,8-dihydro-1,6-naphthyridin-6(5H)-yl)-2-(difluoromethyl)-8,9-dimethyl-4H-pyrimido[1,2-b]pyridazin-4-one]: the Emax at 30 µM was determined as 95% and the pEC50 is 6.96.
The like results for `COc1ccc(-c2cnc3c(c2)CN(c2nn4c(=O)cc(C)nc4cc2C)CC3)cn1` [Compound 1-71, 7-(3-(6-methoxypyridin-3-yl)-7,8-dihydro-1,6-naphthyridin-6(5H)-yl)-2,8-dimethyl-4H-pyrimido[1,2-b]pyridazin-4-one] were, in that order, 90% and 6.84.
As for `Cc1cc2nccc(=O)n2nc1N1CCc2ncc(-c3ccc(F)c(Cl)c3)cc2C1` [Compound 1-59, 7-(3-(3-chloro-4-fluorophenyl)-7,8-dihydro-1,6-naphthyridin-6(5H)-yl)-8-methyl-4H-pyrimido[1,2-b]pyridazin-4-one], the Emax at 30 µM was determined as 99% and the negative-log EC50 (pEC50) is 6.61.
For `COCc1cc(=O)n2nc(N3CCc4ncc(-c5ccccc5F)cc4C3)c(C)cc2n1` [Compound 1-360, 7-(3-(2-fluorophenyl)-7,8-dihydro-1,6-naphthyridin-6(5H)-yl)-2-(methoxymethyl)-8-methyl-4H-pyrimido[1,2-b] pyridazin-4-one] the same measures were 83% and 6.61.
For `Cc1cc2nc(C(=O)N3CC(C)C3)cc(=O)n2nc1N1CCc2ncc(C(F)(F)F)cc2C1` [Compound 1-56, 8-methyl-2-(3-methylazetidine-1-carbonyl)-7-(3-(trifluoromethyl)-7,8-dihydro-1,6-naphthyridin-6(5H)-yl)-4H-pyrimido[1,2-b]pyridazin-4-one] the same measures were 102% and 6.55.
The like results for `Cc1c(N2CCc3ncc(-c4cncnc4)cc3C2)nn2c(=O)cc(C(F)F)nc2c1C` [Compound 1-159, 2-(difluoromethyl)-8,9-dimethyl-7-(3-(pyrimidin-5-yl)-7,8-dihydro-1,6-naphthyridin-6(5H)-yl)-4H-pyrimido[1,2-b]pyridazin-4-one] were, in that order, 86% and 5.51.
As for `Cc1cc(=O)n2nc(N3CCc4ncc(-c5cc(F)nc(F)c5)cc4C3)c(C)cc2n1` [Compound 1-242, 7-(3-(2,6-difluoropyridin-4-yl)-7,8-dihydro-1,6-naphthyridin-6(5H)-yl)-2,8-dimethyl-4H-pyrimido[1,2-b]pyridazin-4-one], the Emax at 30 µM turned out to be 79% and the pEC50 is 6.21.
For `Cc1cc2nccc(=O)n2nc1N1CCc2ncc(-c3c(C)nn(C)c3C)cc2C1` [Compound 1-424, 8-methyl-7-(3-(1,3,5-trimethyl-1H-pyrazol-4-yl)-7,8-dihydro-1,6-naphthyridin-6(5H)-yl)-4H-pyrimido[1,2-b] pyridazin-4-one], the Emax at 30 µM was 84% and the pEC50 was 6.13.
For `Cc1cc(=O)n2nc(N3CCc4ncc(-c5ccc(F)c(F)c5)cc4C3)c(C)c(C)c2n1` [Compound 1-205, 7-(3-(3,4-difluorophenyl)-7,8-dihydro-1,6-naphthyridin-6(5H)-yl)-2,8,9-trimethyl-4H-pyrimido[1,2-b]pyridazin-4-one] the same measures were 81% and 5.91.
As to `Cc1cc2nccc(=O)n2nc1N1CCc2ncc(-c3ccsc3C=O)cc2C1` [Compound 1-415, 3-(6-(8-methyl-4-oxo-4H-pyrimido[1,2-b]pyridazin-7-yl)-5,6,7,8-tetrahydro-1,6-naphthyridin-3-yl)thiophene-2-carbaldehyde], the Emax at 30 µM worked out at 86% and the pEC50 is 6.09.
The like results for `Cc1cc2nccc(=O)n2nc1N1CCc2ncc(N3CCOC(c4ccccn4)C3)cc2C1` (stereo not drawn) [Compound 2-76, 8-methyl-7-(3-(2-(pyridin-2-yl)morpholino)-7,8-dihydro-1,6-naphthyridin-6(5H)-yl)-4H-pyrimido[1,2-b]pyridazin-4-one] were, in that order, 76% and 5.27.
`Cc1c(N2CCc3ncc(-c4cccs4)cc3C2)nn2c(=O)cc(C(F)F)nc2c1C` [Compound 1-312, 2-(difluoromethyl)-8,9-dimethyl-7-(3-(thiophen-2-yl)-7,8-dihydro-1,6-naphthyridin-6(5H)-yl)-4H-pyrimido[1,2-b]pyridazin-4-one]: the maximal response (Emax) at 30 µM worked out at 82% and the pEC50 is 6.80.
The like results for `Cc1ncccc1-c1cnc2c(c1)CN(c1nn3c(=O)ccnc3c(C)c1C)CC2` [Compound 1-101, 8,9-dimethyl-7-(3-(2-methylpyridin-3-yl)-7,8-dihydro-1,6-naphthyridin-6(5H)-yl)-4H-pyrimido[1,2-b]pyridazin-4-one] were, in that order, 93% and 6.48.
The like results for `Cc1cc2nccc(=O)n2nc1N1CCc2ncc(NC(=O)C3CCOCC3)cc2C1` [Compound 2-110, N-(6-(8-methyl-4-oxo-4H-pyrimido[1,2-b]pyridazin-7-yl)-5,6,7,8-tetrahydro-1,6-naphthyridin-3-yl)tetrahydro-2H-pyran-4-carboxamide] were, in that order, 47% and 5.66.
As to `CCc1ccccc1-c1cnc2c(c1)CN(c1nn3c(=O)cc(C)nc3cc1C)CC2` [Compound 1-232, 7-(3-(2-ethylphenyl)-7,8-dihydro-1,6-naphthyridin-6(5H)-yl)-2,8-dimethyl-4H-pyrimido[1,2-b]pyridazin-4-one], the Emax at 30 µM is 57% and the pEC50 was 6.36.
Turning to `Cc1c(N2CCc3ncc(-c4cccnc4)cc3C2)nn2c(=O)cc(C(F)F)nc2c1C` [Compound 1-155, 2-(difluoromethyl)-8,9-dimethyl-7-(3-(pyridin-3-yl)-7,8-dihydro-1,6-naphthyridin-6(5H)-yl)-4H-pyrimido[1,2-b]pyridazin-4-one], the Emax at 30 µM was 91% and the pEC50 was 7.21.
For `COc1ccncc1-c1cnc2c(c1)CN(c1nn3c(=O)ccnc3c(C)c1C)CC2` [Compound 1-140, 7-(3-(4-methoxypyridin-3-yl)-7,8-dihydro-1,6-naphthyridin-6(5H)-yl)-8,9-dimethyl-4H-pyrimido[1,2-b]pyridazin-4-one] the same measures were 89% and 6.44.
Turning to `Cc1cc2nccc(=O)n2nc1N1CCc2ncc(N3CCOC(c4ccncc4)C3)cc2C1` (stereo not drawn) [Compound 2-93, 8-methyl-7-(3-(2-(pyridin-4-yl)morpholino)-7,8-dihydro-1,6-naphthyridin-6(5H)-yl)-4H-pyrimido[1,2-b]pyridazin-4-one], the Emax at 30 µM is 75% and the pEC50 is 5.93.
As to `Cc1c(N2CCc3ncc(-c4cnn(C5CC5)c4)cc3C2)nn2c(=O)ccnc2c1C` [Compound 1-152, 7-(3-(1-cyclopropyl-1H-pyrazol-4-yl)-7,8-dihydro-1,6-naphthyridin-6(5H)-yl)-8,9-dimethyl-4H-pyrimido[1,2-b]pyridazin-4-one], the maximum response (Emax) at 30 µM was determined as 80% and the pEC50 was 6.88.
As to `Cc1cc(=O)n2nc(N3CCc4ncc(-c5cccc(F)c5)cc4C3)c(C)cc2n1` [Compound 1-211, 7-(3-(3-fluorophenyl)-7,8-dihydro-1,6-naphthyridin-6(5H)-yl)-2,8-dimethyl-4H-pyrimido[1,2-b]pyridazin-4-one], the Emax at 30 µM worked out at 76% and the pEC50 was 6.35.
For the molecule `COc1cncc(-c2cnc3c(c2)CN(c2nn4c(=O)cc(C(F)F)nc4c(C)c2C)CC3)c1` [Compound 1-167, 2-(difluoromethyl)-7-(3-(5-methoxypyridin-3-yl)-7,8-dihydro-1,6-naphthyridin-6(5H)-yl)-8,9-dimethyl-4H-pyrimido[1,2-b]pyridazin-4-one], the Emax at 30 µM was 80% and the pEC50 was 6.45.
For `Cc1cc2ncc(Cl)c(=O)n2nc1N1CCc2ncc(-c3cn(C)nc3C)cc2C1` [Compound 1-11, 3-chloro-7-(3-(1,3-dimethyl-1H-pyrazol-4-yl)-7,8-dihydro-1,6-naphthyridin-6(5H)-yl)-8-methyl-4H-pyrimido[1,2-b]pyridazin-4-one] the same measures were 92% and 6.80.
Consider `COCc1c(N2CCc3ncc(-c4ccc(C)nc4)cc3C2)nn2c(=O)ccnc2c1C` [Compound 1-271, 8-(methoxymethyl)-9-methyl-7-(3-(6-methylpyridin-3-yl)-7,8-dihydro-1,6-naphthyridin-6(5H)-yl)-4H-pyrimido[1,2-b] pyridazin-4-one], for which the Emax at 30 µM was 87% and the pEC50 was 7.15.
For `COC1CN(C(=O)c2cc(=O)n3nc(N4CCc5ncc(C(F)(F)F)cc5C4)c(C)cc3n2)C1` [Compound 1-47, 2-(3-methoxyazetidine-1-carbonyl)-8-methyl-7-(3-(trifluoromethyl)-7,8-dihydro-1,6-naphthyridin-6(5H)-yl)-4H-pyrimido[1,2-b]pyridazin-4-one] the same measures were 103% and 6.84.
